Test results taken from patent publication US10485773B2, “Benzenesulfonamide derivatives and method for treating cancer” (GONGWIN BIOPHARM HOLDINGS CO., LTD., priority 2016, dated 2019).
≈ marks a conversion by molar mass, not a printed value. Where two headings read alike, the source gives them in different places.

How the values were obtained:
[1] = test system: human liver cancer cell lines Hep3B; test: SRB growth inhibition of liver cancer cells; assay type: cell-based
Procedure: (§1) After letting to stand for 10 minutes at room temperature, the supernatant of each well was removed, and each well was washed with 200 μL H2O once. […] Each of the plates was then placed in the laminar flow cabinet for 1 hour for air dry. 50 μL 0.4% sulforhodamine B (SRB) dye was added into each well of the 96-well plate. […] Each of the plates was then placed in the laminar flow cabinet for 40 minutes to 1 hour for air dry. 1×Tris-Base solution with pH 7.0 to 7.4 was added to each well of the 96-well plate to dissolve the protein complex formed in the bottom of each well, followed by tapping the 96-well plate, allowing the complex in each well to be dissolved uniformly. Absorption of each well under 515 nm was read. […] Each of the experimental group was performed in triplet.

[2] = first dissolution test in DMSO or water; conditions: for dissolution in the first dissolution test: DMSO or water; for Total volume of DMSO for dissolving the p-TSA derivatives / Total volume of water for dissolving the p-TSA derivatives: first dissolution test, amount for a 3M solution in 0.5 mL, up to 15000 μL; for solubility: thermodynamic from solid
Procedure: Each of the powder of p-TSA derivatives was duplicated, placed in each 15 mL centrifuge tube, followed by adding 200 μL DMSO or 200 μL water and shaking for 10 to 20 seconds for dissolution observation. If the powder was not dissolved, additional DMSO or water was added, and then the mixture was shaken. The tube was left to stand for 10 minutes for observation if the powder was still not dissolved after adding 1 mL DMSO or 1 mL water. If the powder was still not dissolved after adding 5 mL DMSO or 5 mL water, additional 1 mL DMSO or 1 mL water was added, and then the mixture was shaken for 30 seconds. If the powder was still not dissolved after adding 10 mL DMSO or 10 mL water, the tube was left to stand for 12 to 16 hours and observed on the next day. DMSO or water was added into the tube having the undissolved p-TSA derivatives up to 15 mL, followed by shaking for 30 minutes for observation.

[3] = test system: human non-small-cell lung cancer cell lines H460; test: SRB growth inhibition of lung cancer cells; assay type: cell-based
Procedure: as §1

[4] = second dissolution test in DMSO or water; assay type: physicochemical; conditions: for dissolution in the second dissolution test: 100 mg powder, DMSO or water; for Total volume of DMSO for dissolving the p-TSA derivatives / Total volume of water for dissolving the p-TSA derivatives: second dissolution test, 0.1 g powder
Procedure: A second dissolution test was performed for the undissolved p-TSA derivatives. Each of 100 mg p-TSA derivatives powder was placed in each of the scintillation vial, followed by adding 500 μL DMSO or 500 μL water and shaking for 30 seconds for dissolution observation.

[5] = Homo sapiens, Hep3B, 48 h, derivative dissolved in water, 48 hours, SRB, read-out: IC50 of Hep3B in water
[6] = derivative dissolved in DMSO, 48 hours, SRB, read-out: IC50 of Hep3B in DMSO
[7] = Homo sapiens, NCI-H460, 48 h, derivative dissolved in water, 48 hours, SRB, read-out: IC50 of H460 in water
[8] = derivative dissolved in DMSO, 48 hours, SRB, read-out: IC50 of H460 in DMSO
[9] = Homo sapiens, Hep3B, 48 h, derivative dissolved in DMSO, 48 hours, SRB, read-out: IC50 of Hep3B in DMSO
[10] = Homo sapiens, NCI-H460, 48 h, derivative dissolved in DMSO, 48 hours, SRB, read-out: IC50 of H460 in DMSO
[11] = DMSO, organic solvent or mixture

IC50 [1, 5]	Total volume of DMSO for dissolving the p-TSA derivatives ([2]; DMSO)	Total volume of water for dissolving the p-TSA derivatives ([2]; water)	IC50 [3, 7]	IC50 [1, 9]	IC50 [3, 10]	SMILES	further results
> 6030 µM	insoluble in 15000 μL	insoluble in 15000 μL	> 6030 µM			CC(=O)NS(=O)(=O)c1ccc(C)cc1 [PTSA002]	IC50 [1, 6]: > 270 µM; dissolution in the first dissolution test [2]: not dissolved in DMSO or water; IC50 [3, 8]: > 270 µM; dissolution in the second dissolution test [4]: dissolved in both of; Total volume of DMSO for dissolving the p-TSA derivatives [4]: 8 mL; Total volume of water for dissolving the p-TSA derivatives [4]: 5.25 mL
	insoluble in 15000 μL	insoluble in 15000 μL				Cc1ccc(S(=O)(=O)N2CCC(O)CC2)cc1 [PTSA032]	Dissolution of p-TSA derivatives (in DMSO and/or water) ([2]; overall result of first and second dissolution tests, category is the column head of Table 3): not dissolved in neither DMSO nor water; Total volume of DMSO for dissolving the p-TSA derivatives [4]: insoluble in 20 ml mL; Total volume of DMSO for dissolving the p-TSA derivatives ([4]; listed as PTSA0032): > 20 mL; Total volume of water for dissolving the p-TSA derivatives [4]: insoluble in 20 mL; Total volume of water for dissolving the p-TSA derivatives ([4]; listed as PTSA0032): > 20 mL
	845 µL	insoluble in 15000 μL		> 10000 µM	> 10000 µM	Cc1ccc(S(=O)(=O)N[C@@H](CO)C(=O)O)cc1 [PTSA046]	
> 3000 µM	2000 µL	2500 µL	> 3000 µM	> 3000 µM	> 3000 µM	Cc1ccc(S(=O)(=O)N2CCCC2C(=O)O)cc1 (stereo not drawn) [PTSA047]	
> 3000 µM	2000 µL	10000 µL	> 3000 µM	> 3000 µM	> 3000 µM	Cc1ccc(S(=O)(=O)NCCS(=O)(=O)O)cc1 [PTSA048]	
	insoluble in 15000 μL	insoluble in 15000 μL		> 174 µM	> 174 µM	Cc1ccc(S(=O)(=O)NCCF)cc1 [PTSA049]	dissolution in the first dissolution test [2]: not dissolved in DMSO or water; dissolution in the second dissolution test [4]: dissolved in both of; Total volume of DMSO for dissolving the p-TSA derivatives [4]: 9.5 mL; Total volume of water for dissolving the p-TSA derivatives [4]: insoluble in 20 mL
1440 µM	1500 µL	1000 µL	1750 µM	1410 µM	1820 µM	Cc1ccc(S(=O)(=O)NCCN(C)C)cc1.Cl [PTSA051]	
954 µM	2000 µL	5000 µL	1090 µM	919 µM	906 µM	Cc1ccc(S(=O)(=O)NC2CCNCC2)cc1.Cl [PTSA052]	
	4000 µL	insoluble in 15000 μL		137 µM	141 µM	Cc1ccc(S(=O)(=O)NC2CCN(Cc3ccccc3)CC2)cc1.Cl [PTSA052i]	solubility [2, 11]: 143 mg/mL; solubility ([2]; water): < 50 mg/mL
770 µM	15000 µL	2500 µL	691 µM			Cc1ccc(S(=O)(=O)N2CCC(N)CC2)cc1.Cl [PTSA053]	
	740 µL	insoluble in 15000 μL		935 µM	1170 µM	Cc1ccc(S(=O)(=O)NCC2CCNCC2)cc1.Cl [PTSA054]	
610 µM	2000 µL	3000 µL	651 µM	596 µM	617 µM	Cc1ccc(S(=O)(=O)N2CCC(CN)CC2)cc1.Cl [PTSA055]	solubility [2, 11]: 229 mg/mL; solubility ([2]; water): 152 mg/mL
	3000 µL	insoluble in 15000 μL		> 2250 µM	> 2250 µM	Cc1ccc(S(=O)(=O)N2CC(C(N)=O)C2)cc1 [PTSA062]	
	900 µL	insoluble in 15000 μL		1300 µM	1270 µM	Cc1ccc(S(=O)(=O)N2CC(C#N)C2)cc1 [PTSA063]	
	750 µL	insoluble in 15000 μL		> 713 µM	> 713 µM	Cc1ccc(S(=O)(=O)N2CC(F)(F)C2)cc1 [PTSA064]	
	2500 µL	insoluble in 15000 μL		1450 µM	1330 µM	Cc1ccc(S(=O)(=O)N2CC(F)C2)cc1 [PTSA065]	
	3000 µL	insoluble in 15000 μL		733 µM	906 µM	Cc1ccc(S(=O)(=O)N2CC(=O)C2)cc1 [PTSA066]	
	870 µL	insoluble in 15000 μL		261 µM	273 µM	Cc1ccc(S(=O)(=O)N2CC(C(=O)NO)C2)cc1 [PTSA067]	solubility [2, 11]: 466 mg/mL (≈ 1720 mM); solubility ([2]; water): < 50 mg/mL
1300 µM	4000 µL	4500 µL	1390 µM	1250 µM	1270 µM	Cc1ccc(S(=O)(=O)N2CC(CN)C2)cc1.Cl [PTSA068]	
	880 µL	insoluble in 15000 μL		3620 µM	2580 µM	Cc1ccc(S(=O)(=O)N2CC(CO)C2)cc1 [PTSA069]	
	1500 µL	insoluble in 15000 μL		1020 µM	1040 µM	Cc1ccc(S(=O)(=O)N2CC(C(=O)NN)C2)cc1 [PTSA071]	
	4500 µL	insoluble in 15000 μL		> 1120 µM	> 1120 µM	CON=C1CN(S(=O)(=O)c2ccc(C)cc2)C1 [PTSA072]	
	insoluble in 15000 μL	insoluble in 15000 μL				Cc1ccc(S(=O)(=O)N2CC(=NNC(=O)C3CN(S(=O)(=O)c4ccc(C)cc4)C3)C2)cc1 [PTSA073]	dissolution in the first dissolution test [2]: not dissolved in DMSO or water; dissolution in the second dissolution test [4]: dissolved in both of; Total volume of DMSO for dissolving the p-TSA derivatives [4]: 4.04 mL; Total volume of water for dissolving the p-TSA derivatives [4]: insoluble in 20 mL
2130 µM	2500 µL	10000 µL	2220 µM	> 1800 µM	> 1800 µM	Cc1ccc(S(=O)(=O)N2CC(N)C2)cc1.Cl [PTSA074]	
						Cc1ccc(S(N)(=O)=O)cc1 [p-TSA, Toluene sulfonamide, reference compound]	IC50 [1, 6]: 3730 ± 274 µM; Solubility in DMSO ([2]; DMSO): 785.95 mg/mL (≈ 4590 mM); Solubility in water ([2]; water): <50 mg/mL; IC50 [3, 8]: 3720 ± 146 µM

SMILES	IC50 [1, 5]	Total volume of DMSO for dissolving the p-TSA derivatives ([2]; DMSO)	Total volume of water for dissolving the p-TSA derivatives ([2]; water)	IC50 [3, 7]	IC50 [1, 9]	IC50 [3, 10]	further results
Cc1ccc(S(=O)(=O)N2CC(C(=O)[O-])C2)cc1.[Na+] [PTSA061]		2500 µL	750 µL				IC50 ([1]; Homo sapiens, Hep3B, 48 h, read-out: IC50 of Hep3B in DMSO): > 2250 µM; IC50 ([1]; Homo sapiens, Hep3B, 48 h, read-out: IC50 of Hep3B in water): > 8800 µM; IC50 ([3]; Homo sapiens, NCI-H460, 48 h, read-out: IC50 of H460 in DMSO): > 2250 µM; IC50 ([3]; Homo sapiens, NCI-H460, 48 h, read-out: IC50 of H460 in water): > 8800 µM
